For series [1], the target named is T1, human GIP R (Homo sapiens, UniProt P48546).
T1 construct: expressed in transfected cells
T1 sequence (P48546 22-466): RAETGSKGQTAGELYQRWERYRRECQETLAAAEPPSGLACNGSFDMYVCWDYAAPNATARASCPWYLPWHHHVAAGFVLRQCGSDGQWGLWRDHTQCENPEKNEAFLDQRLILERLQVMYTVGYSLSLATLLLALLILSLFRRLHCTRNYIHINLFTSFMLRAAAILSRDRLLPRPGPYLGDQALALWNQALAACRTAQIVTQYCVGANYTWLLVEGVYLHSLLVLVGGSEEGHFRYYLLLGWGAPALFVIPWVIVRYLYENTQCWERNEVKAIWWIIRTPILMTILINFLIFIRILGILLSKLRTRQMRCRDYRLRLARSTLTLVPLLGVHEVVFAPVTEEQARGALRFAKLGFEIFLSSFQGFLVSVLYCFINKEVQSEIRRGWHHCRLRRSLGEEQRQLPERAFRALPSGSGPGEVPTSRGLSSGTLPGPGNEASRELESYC
The series is described as follows: Human GIP receptor (GIP R) activity assay, cAMP induction (AlphaScreen) in HEK293 cells. In kind it is cell-based. Conditions: read-out: hGIP-R cAMP EC50 average value. A digest of the protocol:
(§1)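 Stable HEK293 clones expressing human GIP R or GLP-1 R, seeded 1 day before; cells washed in Tyrode's buffer (10 mM HEPES, pH 7.4), stimulated, then lysed. cAMP measured by AlphaScreen bead competition (1 h, room temperature, dark). EC50 = concentration giving half-maximal cAMP elevation, from curves of absolute cAMP (nM) vs log concentration.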

Series [2] addresses T2, human GLP-1 R (Homo sapiens, UniProt P43220).
T2 construct: expressed in transfected cells
As to the kind of experiment: Human GLP-1 receptor (GLP-1 R) activity assay, cAMP induction (AlphaScreen) in HEK293 cells. In kind it is cell-based. A digest of the protocol: as §1

A short description of series [3]: Pharmacokinetics of selected compounds in mice. Conditions: male, C57BL/6J, mouse, plasma; for bioavailability: subcutaneous, AUCinf (s.c.)/AUCinf (i.v.)x100, values marked * capped to 100%. In kind it is in vivo, C57BL/6J mice. The method, boiled down:
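Male C57BL/6J mice (~25 g) got single s.c. or i.v. bolus (50, 100 or 200 nmol/kg) in mannitol phosphate buffer, pH 7.5; plasma sampled at 8 timepoints to 72 h (s.c.) or 48 h (i.v.), two mice per point, measured by LC-MS/MS. Non-compartmental T½, Tmax and bioavailability (AUCinf s.c./i.v.) from mean concentrations.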

Series [4] addresses T3, human GIP receptor (human) (UniProt P48546).
T3 sequence: T1 sequence (P48546 22-466)
As to the kind of experiment: cell-based or functional assay.

Where [5] appears, read: Table 2, HEK293 cells expressing human GIP R.
Where [6] appears, read: Table 2, HEK293 cells expressing human GLP-1 R, read-out: hGLP1-R cAMP EC50 average value.
The mark [7] stands for this setting: iv, single i.v. bolus, read-out: T½ terminal elimination half-life, i.v. (converted).
The mark [8] stands for this setting: sc, single s.c. bolus, read-out: T½ terminal elimination half-life, s.c. (converted).

Like-named read-outs stand apart in the source and are kept apart here. *1 amine or outer side, *2 acyl side, *3 side chain or, on linkers, in order; H or OH if unused. Where a SMILES comes first, the peptide text is derived from it. Side-chain parts run from the residue outwards. [ ]: non-standard residue; d: D form. The star is where a group is joined. C20 diacid = O=C(O)CCCCCCCCCCCCCCCCCCC(=O)*; γGlu = O=C(O)[C@H](CCC(=O)[*:2])N[*:1]; AEEA = NCCOCCOCC(=O)O; Aib = CC(C)(N)C(=O)O

T2 sequence (P43220 24-463): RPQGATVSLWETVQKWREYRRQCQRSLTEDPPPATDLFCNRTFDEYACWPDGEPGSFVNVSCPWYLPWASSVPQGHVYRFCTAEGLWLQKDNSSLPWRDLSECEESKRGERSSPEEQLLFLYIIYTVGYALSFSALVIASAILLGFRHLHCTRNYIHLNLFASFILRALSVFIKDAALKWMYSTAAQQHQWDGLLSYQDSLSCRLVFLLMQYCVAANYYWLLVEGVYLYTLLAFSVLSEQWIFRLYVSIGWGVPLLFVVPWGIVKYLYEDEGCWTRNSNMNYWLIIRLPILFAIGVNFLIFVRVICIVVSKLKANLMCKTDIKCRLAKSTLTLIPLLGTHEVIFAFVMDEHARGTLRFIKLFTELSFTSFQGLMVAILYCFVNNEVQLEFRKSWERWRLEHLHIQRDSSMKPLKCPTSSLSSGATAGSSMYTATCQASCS

As to `CC[C@H](C)[C@H](NC(=O)[C@H](CO)NC(=O)[C@H](Cc1ccc(O)cc1)NC(=O)[C@H](CC(=O)O)NC(=O)[C@H](CO)NC(=O)[C@@H](NC(=O)[C@H](Cc1ccccc1)NC(=O)[C@@H](NC(=O)CNC(=O)[C@H](CCC(=O)O)NC(=O)[C@@H](C)NC(=O)[C@@H](N)Cc1ccc(O)cc1)[C@@H](C)O)[C@@H](C)O)C(=O)N[C@@H](C)C(=O)N[C@@H](CC(C)C)C(=O)N[C@@H](CCC(=O)O)C(=O)N[C@@H](CCCCN)C(=O)N[C@@H](CCCCNC(=O)COCCOCCNC(=O)COCCOCCNC(=O)CC[C@H](NC(=O)CCCCCCCCCCCCCCCCCCC(=O)O)C(=O)O)C(=O)N[C@@H](C)C(=O)N[C@@H](CCC(N)=O)C(=O)N[C@@H](CCCNC(=N)N)C(=O)N[C@@H](C)C(=O)N[C@@H](Cc1ccccc1)C(=O)N[C@H](C(=O)N[C@@H](CCC(=O)O)C(=O)N[C@@H](Cc1c[nH]c2ccccc12)C(=O)N[C@@H](CC(C)C)C(=O)N[C@@H](CC(C)C)C(=O)N[C@@H](C)C(=O)N[C@@H](CCC(N)=O)C(=O)NCC(=O)N1CCC[C@H]1C(=O)N[C@@H](CO)C(=O)N[C@@H](CO)C(=O)NCC(=O)N[C@@H](C)C(=O)N1CCC[C@H]1C(=O)N1CCC[C@H]1C(=O)N1CCC[C@H]1C(=O)N[C@@H](CO)C(N)=O)C(C)C` [Compound 32] (H-Y[dA]EGTFTSDYSIALEKK([AEEA-AEEA-γGlu-C20 diacid])AQRAFVEWLLAQGPSSGAPPPS-NH2), the EC50 in series [1] (setting [5]) came out at 0.016 nM; in series [1] (Table 3, most comprehensive data), 0.018 nM; in series [2] (setting [6]), 0.04 nM; in series [2] (Table 3, most comprehensive data, read-out: hGLP-1-R cAMP EC50 average value), 0.056 nM. The values for the half-life in series [3] (setting [7]) and in series [3] (setting [8]) were 1040 min and 708 min, respectively. The bioavailability in series [3] worked out at 100%. Also, the Tmax in series [3] (sc, single s.c. bolus) came out at 8 h.
With `CC[C@H](C)[C@H](NC(=O)[C@H](CO)NC(=O)[C@H](CC(C)C)NC(=O)[C@H](CC(=O)O)NC(=O)[C@H](CO)NC(=O)[C@@H](NC(=O)[C@H](Cc1ccccc1)NC(=O)[C@@H](NC(=O)CNC(=O)[C@H](CCC(=O)O)NC(=O)C(C)(C)NC(=O)[C@@H](N)Cc1ccc(O)cc1)[C@@H](C)O)[C@@H](C)O)C(=O)N[C@@H](C)C(=O)N[C@@H](CC(C)C)C(=O)N[C@@H](CCC(=O)O)C(=O)N[C@@H](CCCCN)C(=O)N[C@@H](CCCCNC(=O)COCCOCCNC(=O)COCCOCCNC(=O)CC[C@H](NC(=O)CCCCCCCCCCCCCCCCCCC(=O)O)C(=O)O)C(=O)N[C@@H](C)C(=O)N[C@@H](CCC(N)=O)C(=O)N[C@@H](CCCNC(=N)N)C(=O)N[C@@H](C)C(=O)N[C@@H](Cc1ccccc1)C(=O)N[C@H](C(=O)N[C@@H](CCC(=O)O)C(=O)N[C@@H](Cc1c[nH]c2ccccc12)C(=O)N[C@@H](CC(C)C)C(=O)N[C@@H](CC(C)C)C(=O)N[C@@H](C)C(=O)N[C@@H](CCC(N)=O)C(=O)N[C@@H](CCCCN)C(=O)N1CCC[C@H]1C(=O)N[C@@H](CO)C(=O)N[C@@H](CO)C(=O)NCC(=O)N[C@@H](C)C(=O)N1CCC[C@H]1C(=O)N1CCC[C@H]1C(=O)N1CCC[C@H]1C(=O)N[C@@H](CO)C(N)=O)C(C)C` [Compound 34] (H-Y[Aib]EGTFTSDLSIALEKK([AEEA-AEEA-γGlu-C20 diacid])AQRAFVEWLLAQKPSSGAPPPS-NH2), the EC50 in series [1] (setting [5]) came out at 0.012 nM; in series [2] (setting [6]) it was 0.015 nM. In addition, the half-life in series [3] (setting [7]) is 894 min; in series [3] (setting [8]), 1030 min. The same compound had a bioavailability in series [3] of 79%. Moreover, the Tmax in series [3] (sc, single s.c. bolus) was 8 h.
Regarding “hGIP (from UniProt P09681 52-93) (ligand)”, the EC50, hGIP-R cAMP in series [4] was determined as 3 pM.
On the same count and under the same terms, in the case of “hGLP-1 (from UniProt P01275 92-128) (ligand)” it was over 10000 pM.

For the origin of these results see patent US10093713B2, “GIP-GLP-1 dual agonist compounds and methods” (priority 2013, dated 2018).
